Experimental data as given in paper PMC12281424, “A Rac-specific competitive inhibitor of guanine nucleotide binding reduces metastasis in triple-negative breast cancer” (Cell Reports Medicine, 2025).

Experiments:
[1] = target: Src(T341M)(h) (Homo sapiens, UniProt P12931, T341M); test: Kinase Profiler; assay type: biochemical
Description: (§1) The kinase profiler was performed by the company Eurofins (Discovery, Panlab and Cerep).

[2] = target: TSSK2(h) (Homo sapiens, UniProt Q96PF2); test: Kinase Profiler; assay type: biochemical
Description: as §1

[3] = target: CaMKIIα(h) (Homo sapiens, UniProt Q9UQM7); test: Kinase Profiler; assay type: biochemical
Description: as §1

[4] = target: CK1α(h) (Homo sapiens, UniProt P48729); test: Kinase Profiler; assay type: biochemical
Description: (§2) Blood cell counts, kinase profiler, safety screen, bacterial cytotoxicity, Ames, micronucleus assays were performed by the company Eurofins (France). The kinase profiler was performed by the company Eurofins (Discovery, Panlab and Cerep).

[5] = target: WNK1(h) (Homo sapiens, UniProt Q9H4A3); test: Kinase Profiler; assay type: biochemical
Description: as §1

[6] = target: Dopamine D2S (Homo sapiens, UniProt P14416); test: Safety screen; assay type: binding
Sequence of Dopamine D2S (P14416 1-414 isoform P14416-2): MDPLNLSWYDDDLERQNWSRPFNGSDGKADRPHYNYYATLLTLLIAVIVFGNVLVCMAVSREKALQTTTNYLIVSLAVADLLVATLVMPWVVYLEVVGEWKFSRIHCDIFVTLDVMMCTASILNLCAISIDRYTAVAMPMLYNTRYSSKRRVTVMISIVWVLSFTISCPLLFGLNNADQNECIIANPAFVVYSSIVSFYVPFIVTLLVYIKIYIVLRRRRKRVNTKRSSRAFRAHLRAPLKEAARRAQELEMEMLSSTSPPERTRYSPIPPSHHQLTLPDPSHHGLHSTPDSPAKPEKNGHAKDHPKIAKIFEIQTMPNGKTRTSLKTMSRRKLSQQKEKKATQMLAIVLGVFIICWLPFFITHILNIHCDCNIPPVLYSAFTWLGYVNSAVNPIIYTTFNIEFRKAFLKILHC
Description: (§3) Blood cell counts, kinase profiler, safety screen, bacterial cytotoxicity, Ames, micronucleus assays were performed by the company Eurofins (France).

[7] = target: MAK(h) (Homo sapiens, UniProt P20794); test: Kinase Profiler; assay type: biochemical
Sequence of MAK(h) (P20794 whole entry): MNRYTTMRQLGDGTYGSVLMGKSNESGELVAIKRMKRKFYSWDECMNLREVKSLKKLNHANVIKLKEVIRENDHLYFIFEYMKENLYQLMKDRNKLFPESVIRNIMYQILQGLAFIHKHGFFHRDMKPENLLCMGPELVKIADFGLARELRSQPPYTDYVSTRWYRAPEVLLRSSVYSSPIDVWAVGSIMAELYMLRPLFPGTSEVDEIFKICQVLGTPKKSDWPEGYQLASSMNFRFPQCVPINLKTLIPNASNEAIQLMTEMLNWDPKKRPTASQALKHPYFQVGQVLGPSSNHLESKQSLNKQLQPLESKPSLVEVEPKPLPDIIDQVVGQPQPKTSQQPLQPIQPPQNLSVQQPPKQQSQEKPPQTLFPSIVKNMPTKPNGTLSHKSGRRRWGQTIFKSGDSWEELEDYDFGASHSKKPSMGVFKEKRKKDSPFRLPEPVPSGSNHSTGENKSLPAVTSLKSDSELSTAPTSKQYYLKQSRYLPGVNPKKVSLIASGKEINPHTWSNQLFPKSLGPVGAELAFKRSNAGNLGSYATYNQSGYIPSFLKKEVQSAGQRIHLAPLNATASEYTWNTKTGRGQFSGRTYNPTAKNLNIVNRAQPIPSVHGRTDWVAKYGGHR
Description: as §1

[8] = target: HIPK2(h) (Homo sapiens, UniProt Q9H2X6); test: Kinase Profiler; assay type: biochemical
Description: as §1

[9] = target: CDK3/cyclinE(h) (Homo sapiens, UniProt Q00526); test: Kinase Profiler; assay type: biochemical
Sequence of CDK3/cyclinE(h) (P24864 whole entry): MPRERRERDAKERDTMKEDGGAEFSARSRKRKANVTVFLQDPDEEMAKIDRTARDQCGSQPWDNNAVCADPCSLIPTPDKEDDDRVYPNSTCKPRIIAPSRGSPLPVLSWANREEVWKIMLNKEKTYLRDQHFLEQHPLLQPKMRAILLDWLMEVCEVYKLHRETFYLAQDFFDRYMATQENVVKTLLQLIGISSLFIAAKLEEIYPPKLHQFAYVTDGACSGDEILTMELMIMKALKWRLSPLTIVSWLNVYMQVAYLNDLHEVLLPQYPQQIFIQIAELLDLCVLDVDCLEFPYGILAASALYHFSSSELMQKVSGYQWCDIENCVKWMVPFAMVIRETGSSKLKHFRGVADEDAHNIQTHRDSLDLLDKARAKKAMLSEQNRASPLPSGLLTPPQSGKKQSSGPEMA
Sequence of CDK3/cyclinE(h) (Q00526 whole entry): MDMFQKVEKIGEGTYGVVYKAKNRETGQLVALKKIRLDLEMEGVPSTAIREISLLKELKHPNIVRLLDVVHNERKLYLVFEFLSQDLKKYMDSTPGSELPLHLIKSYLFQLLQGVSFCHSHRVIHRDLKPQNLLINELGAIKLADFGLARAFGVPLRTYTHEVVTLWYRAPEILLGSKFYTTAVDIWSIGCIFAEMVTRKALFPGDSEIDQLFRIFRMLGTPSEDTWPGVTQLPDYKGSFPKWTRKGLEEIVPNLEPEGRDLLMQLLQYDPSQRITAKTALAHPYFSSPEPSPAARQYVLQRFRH
Description: as §2

[10] = target: Nicotinic Acetylcholine α1, Bungarotoxin (Homo sapiens, UniProt P02708+P07510+Q07001); test: Safety screen; assay type: binding
[11] = target: Rse(h) (Homo sapiens, UniProt Q06418); test: Kinase Profiler; assay type: biochemical
Sequence of Rse(h) (Q06418 41-890): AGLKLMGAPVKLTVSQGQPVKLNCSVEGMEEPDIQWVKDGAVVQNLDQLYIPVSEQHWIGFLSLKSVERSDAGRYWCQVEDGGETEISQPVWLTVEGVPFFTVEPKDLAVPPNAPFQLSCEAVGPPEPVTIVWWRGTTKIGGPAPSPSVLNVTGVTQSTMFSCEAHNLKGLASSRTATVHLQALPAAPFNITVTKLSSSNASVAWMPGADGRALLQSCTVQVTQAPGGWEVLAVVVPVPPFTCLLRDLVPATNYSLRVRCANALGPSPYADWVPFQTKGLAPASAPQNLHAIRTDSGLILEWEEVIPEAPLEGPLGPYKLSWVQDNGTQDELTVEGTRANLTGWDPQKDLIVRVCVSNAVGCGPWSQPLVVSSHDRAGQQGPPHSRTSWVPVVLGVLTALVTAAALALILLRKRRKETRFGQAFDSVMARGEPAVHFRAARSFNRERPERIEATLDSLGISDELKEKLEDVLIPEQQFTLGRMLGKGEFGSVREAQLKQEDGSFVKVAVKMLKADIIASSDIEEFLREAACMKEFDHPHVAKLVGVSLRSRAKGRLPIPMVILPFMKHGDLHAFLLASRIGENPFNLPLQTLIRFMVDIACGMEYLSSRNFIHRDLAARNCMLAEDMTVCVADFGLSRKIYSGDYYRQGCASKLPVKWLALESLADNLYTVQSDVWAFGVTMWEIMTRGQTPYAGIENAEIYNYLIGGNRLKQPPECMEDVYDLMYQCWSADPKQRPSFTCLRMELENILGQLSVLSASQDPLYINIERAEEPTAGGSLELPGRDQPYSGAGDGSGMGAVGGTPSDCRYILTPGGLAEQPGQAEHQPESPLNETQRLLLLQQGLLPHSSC
Description: as §1

[12] = target: NIM1(h) (Homo sapiens, UniProt Q8IY84); test: Kinase Profiler; assay type: biochemical
Description: as §1

[13] = target: TYK2(h) (Homo sapiens, UniProt P29597); test: Kinase Profiler; assay type: biochemical
Sequence of TYK2(h) (P29597 whole entry): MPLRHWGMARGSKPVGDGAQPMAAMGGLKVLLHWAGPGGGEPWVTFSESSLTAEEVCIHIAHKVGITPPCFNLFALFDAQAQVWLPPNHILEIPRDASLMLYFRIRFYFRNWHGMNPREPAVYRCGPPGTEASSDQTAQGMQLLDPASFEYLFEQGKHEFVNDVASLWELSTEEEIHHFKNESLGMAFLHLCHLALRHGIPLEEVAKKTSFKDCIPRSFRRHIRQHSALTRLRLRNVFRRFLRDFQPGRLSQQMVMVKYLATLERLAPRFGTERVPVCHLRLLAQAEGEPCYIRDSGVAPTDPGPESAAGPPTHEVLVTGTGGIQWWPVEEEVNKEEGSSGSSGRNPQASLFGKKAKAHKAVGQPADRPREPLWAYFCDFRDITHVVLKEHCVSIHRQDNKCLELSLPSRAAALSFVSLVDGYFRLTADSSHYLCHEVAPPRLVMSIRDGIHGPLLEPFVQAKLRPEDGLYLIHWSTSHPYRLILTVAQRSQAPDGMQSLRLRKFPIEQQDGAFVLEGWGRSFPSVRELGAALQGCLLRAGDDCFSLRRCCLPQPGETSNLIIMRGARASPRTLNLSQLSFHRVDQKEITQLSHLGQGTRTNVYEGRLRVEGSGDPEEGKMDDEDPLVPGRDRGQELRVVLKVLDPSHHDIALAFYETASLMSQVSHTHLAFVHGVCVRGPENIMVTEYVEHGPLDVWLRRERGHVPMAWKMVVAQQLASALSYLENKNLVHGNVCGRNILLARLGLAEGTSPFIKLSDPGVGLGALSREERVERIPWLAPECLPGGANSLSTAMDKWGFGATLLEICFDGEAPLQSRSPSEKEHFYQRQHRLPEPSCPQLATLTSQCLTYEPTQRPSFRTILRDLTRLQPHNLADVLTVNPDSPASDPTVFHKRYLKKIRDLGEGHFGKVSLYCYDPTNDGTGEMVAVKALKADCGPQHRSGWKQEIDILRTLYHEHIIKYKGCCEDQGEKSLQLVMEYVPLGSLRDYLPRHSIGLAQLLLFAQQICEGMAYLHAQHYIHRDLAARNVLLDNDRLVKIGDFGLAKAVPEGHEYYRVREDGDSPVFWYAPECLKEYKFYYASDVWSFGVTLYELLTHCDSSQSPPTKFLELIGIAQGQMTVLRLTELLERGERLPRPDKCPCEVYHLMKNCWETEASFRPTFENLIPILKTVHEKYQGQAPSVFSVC
Description: as §2

[14] = test system: breast CAF spheroids; test: 3D invasion assay; assay type: cell-based, human; conditions: 10^-5 M
Description: Figure 5 A41 decreases growth and invasiveness of TNBC cells in vitro (A) Representative images of RAC-GTP levels (red) in MDA-MB-468 Luc cells in the absence (CTL) and presence of EHT1864, NSC23766, or A41 (1 h at 10 μM) (left). Luciferase (Luc, green) was used to detect the cells. RAC-GTP mean fluorescence intensity was quantified inside the cell area (right) (n = 31–37 cells from 3 independent experiments; ∗p < 0.05, ∗∗∗p < 0.001) (scale bars: 10 μm). […] (C) Quantification of colony number of indicated cancer cell lines in the presence of A41 (10 μM) expressed as the percentage of control in the absence of A41. Results shown are representative of N > 3 independent experiments. (D) Immunoblot analysis and corresponding quantification of AKT and P44/42 expression and phosphorylation (pAKT, p44/42) in MDA-MB-468 Luc cells in the absence (−) and presence of NSC23766 or A41 (1 h at 10^−5 M). […] (E) 3D invasion assay of MDA-MB-468 Luc and cancer-associated fibroblasts (CAFs) and corresponding quantification (scale bars: 200 μm). […]
3D-spheroids were obtained, according the protocol previously described,[62] by re-suspending cells at a concentration of 1.25 × 10^4 cells/ml in 20% Methyl-cellulose/80% DMEM 10% FBS. […] Invasion was monitored by fully automated Dmi6000b Wide Field Fluorescence Microscope (Leica Microsystems, Wetzlar, Germany) during 48h.

[15] = target: EGFR(L858R)(h) (Homo sapiens, UniProt P00533, L858R); test: Kinase Profiler; assay type: biochemical
Description: as §1

[16] = test system: other breast cancer cell lines and other types of cancer cell lines; test: Focus formation (clonogenic) assay; assay type: cell-based; conditions: 10 μM
Description: Figure 5 A41 decreases growth and invasiveness of TNBC cells in vitro (A) Representative images of RAC-GTP levels (red) in MDA-MB-468 Luc cells in the absence (CTL) and presence of EHT1864, NSC23766, or A41 (1 h at 10 μM) (left). Luciferase (Luc, green) was used to detect the cells. RAC-GTP mean fluorescence intensity was quantified inside the cell area (right) (n = 31–37 cells from 3 independent experiments; ∗p < 0.05, ∗∗∗p < 0.001) (scale bars: 10 μm). […] (C) Quantification of colony number of indicated cancer cell lines in the presence of A41 (10 μM) expressed as the percentage of control in the absence of A41. Results shown are representative of N > 3 independent experiments. (D) Immunoblot analysis and corresponding quantification of AKT and P44/42 expression and phosphorylation (pAKT, p44/42) in MDA-MB-468 Luc cells in the absence (−) and presence of NSC23766 or A41 (1 h at 10^−5 M). Results shown are representative of 3 independent experiments. ∗∗p < 0.01 vs. untreated cells, ^###p < 0.001 vs. NSC23766-treated cells. (E) 3D invasion assay of MDA-MB-468 Luc and cancer-associated fibroblasts (CAFs) and corresponding quantification (scale bars: 200 μm). […]
1000 cells/well from the indicated cancer cell lines were seeded in 6-wells plates and allowed to grow 2 days before treatments. […] The area occupied by the cells was then quantified with ImageJ software. […]

[17] = target: Pim-3(h) (Homo sapiens, UniProt Q86V86); test: Kinase Profiler; assay type: biochemical
Description: as §2

[18] = target: PAR-1Bα(h) (Homo sapiens, UniProt Q7KZI7); test: Kinase Profiler; assay type: biochemical
Description: as §1

[19] = target: CDK2/cyclinE(h) (Homo sapiens, UniProt P24941); test: Kinase Profiler; assay type: biochemical
Description: as §2

[20] = target: PRKG2(h) (Homo sapiens, UniProt Q13237); test: Kinase Profiler; assay type: biochemical
Description: as §2

[21] = target: CDK12/cyclinK(h) (Homo sapiens, UniProt Q9NYV4); test: Kinase Profiler; assay type: biochemical
Description: as §2

[22] = target: Fgr(h) (Homo sapiens, UniProt P09769); test: Kinase Profiler; assay type: biochemical
Description: as §1

[23] = target: Mnk2(h) (Homo sapiens, UniProt Q9HBH9); test: Kinase Profiler; assay type: biochemical
Sequence of Mnk2(h) (Q9HBH9 whole entry): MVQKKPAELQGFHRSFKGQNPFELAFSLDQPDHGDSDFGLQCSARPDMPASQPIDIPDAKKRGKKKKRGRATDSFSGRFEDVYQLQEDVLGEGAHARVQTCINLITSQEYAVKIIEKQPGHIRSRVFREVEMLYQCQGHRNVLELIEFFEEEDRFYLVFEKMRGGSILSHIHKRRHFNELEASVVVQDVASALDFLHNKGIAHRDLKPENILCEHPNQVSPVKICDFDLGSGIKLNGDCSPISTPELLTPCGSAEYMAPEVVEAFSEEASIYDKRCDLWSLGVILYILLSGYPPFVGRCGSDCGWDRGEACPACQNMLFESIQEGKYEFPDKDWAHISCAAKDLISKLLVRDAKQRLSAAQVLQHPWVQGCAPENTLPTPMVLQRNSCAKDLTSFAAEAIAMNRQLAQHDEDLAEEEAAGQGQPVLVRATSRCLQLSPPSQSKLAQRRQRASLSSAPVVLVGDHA
Description: as §1

[24] = target: MST4(h) (Homo sapiens, UniProt Q9P289); test: Kinase Profiler; assay type: biochemical
Sequence of MST4(h) (Q9P289 whole entry): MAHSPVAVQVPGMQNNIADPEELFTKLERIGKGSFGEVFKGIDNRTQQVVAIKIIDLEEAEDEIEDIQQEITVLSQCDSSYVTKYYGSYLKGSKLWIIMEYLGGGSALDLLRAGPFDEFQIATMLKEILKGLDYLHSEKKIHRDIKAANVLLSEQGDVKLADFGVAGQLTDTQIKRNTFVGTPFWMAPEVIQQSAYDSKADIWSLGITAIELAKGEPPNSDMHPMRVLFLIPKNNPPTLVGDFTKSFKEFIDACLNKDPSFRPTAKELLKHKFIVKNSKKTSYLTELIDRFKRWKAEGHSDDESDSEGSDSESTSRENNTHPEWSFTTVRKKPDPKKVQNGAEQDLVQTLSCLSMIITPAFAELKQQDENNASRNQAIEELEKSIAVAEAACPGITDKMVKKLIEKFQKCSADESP
Description: as §1

[25] = target: EGFR(h) (Homo sapiens, UniProt P00533); test: Kinase Profiler; assay type: biochemical
Description: as §1

[26] = target: Muscarinic M2 (Homo sapiens, UniProt P08172); test: Safety screen; assay type: binding
Description: as §3

## COc1ccc(OC)c(NS(=O)(=O)c2ccc(NC(=O)CCSc3ccc(C)cc3)cc2)c1 [Compound A41]
[1]
  Activity(%): 89%
[2]
  Activity(%): 111%
[3]
  Activity(%): 99%
[4]
  Activity(%): 102%
[5]
  Activity(%): 96%
[6]
  % inh.: 35%
[7]
  Activity(%): 117%
[8]
  Activity(%): 81%
[9]
  Activity(%): 77%
[10]
  % inh.: 0%
[11]
  Activity(%): 102%
[12]
  Activity(%): 105%
[13]
  Activity(%): 108%
[14]
  invasion of CAF spheroids: anti-invasion property
[15]
  Activity(%): 104%
[16]
  colony formation: Inhibitory effect
[17]
  Activity(%): 101%
[18]
  Activity(%): 111%
[19]
  Activity(%): 100%
[20]
  Activity(%): 123%
[21]
  Activity(%): 100%
[22]
  Activity(%): 114%
[23]
  Activity(%): 107%
[24]
  Activity(%): 101%
[25]
  Activity(%): 115%
[26]
  % inh.: 12%
